In patent publication US12419307B2, “Mixtures comprising indazole pesticides” (FMC Corporation, priority 2019, dated 2025):

Experiments:
Assay type in all cases: in vivo
[1] = system: silverleaf whitefly (Bemisia argentifolii Bellows and Perring); experiment: Test A: silverleaf whitefly control on cotton or soybean plants, spray, insect mortality after 13 days; details: Bemisia argentifolii, read-out: % Mortality (obs)
Description: (§1) The pest control protection afforded by the mixtures or compositions is not limited, however, to these species. The analysis of enhanced activity between the mixtures or compositions was determined using Colby's equation. The average % mortality data for the test compounds alone were inserted into the Colby's equation. If the observed (obs) average % mortality was higher than “p”, the expected (exp) % mortality, the mixture or composition had enhanced effects. If the observed average % mortality was equal to or lower than the expected mortality, the mixture or composition either had no enhanced effect. For bioassays where insect feeding damage was evaluated, enhanced activity is identified when the observed plant damage is less than the expected plant damage rating; ratings ranged between 0 (no damage) and 10 (dead plant) and each value was converted to a % plant protection. 100−(Obs Plant Damage*10)
For evaluating control of silverleaf whitefly (Bemisia argentifolii Bellows and Perring) through contact and/or systemic means, each test unit consisted of a small open container with a 12- to 14-day-old cotton plant or 5-7 day old soybean plant inside. This was pre-infested by placing test units into cages containing adult whiteflies so that oviposition on the cotton leaves could occur. The adults were removed from the plants with an air-blast nozzle, and the test units were capped. The test units were then stored 2 to 3 days before spraying.
Test compounds were formulated using a solution containing 10% acetone, 90% water and 300 ppm Activator 90@ Spreader Lo-Foam Formula non-ionic surfactant containing alkylarylpolyoxyethylene, free fatty acids, glycols and 2-propanol (Loveland Industries, Inc.) to provide the desired concentration in ppm. Formulated test solutions were then applied in 1 mL volumes through a SUJ2 atomizer nozzle with ⅛ JJ custom body (Spraying Systems Co.) positioned 1.27 cm (0.5 inches) above the top of each test unit.
The results for all experimental compositions in this test were replicated three times. After spraying of the formulated test composition, each test unit was allowed to dry for 1 hour and the cap removed. The test units were held for 13 days in a growth chamber at 28° C. and 50-70% relative humidity.

[2] = system: Western Flower Thrips (Frankliniella occidentalis Pergande); experiment: Test B: Western Flower Thrips control on bean plants, plant damage rating converted to % plant protection after 7 days; details: for Plant Damage (obs): Table 3a, applied alone
Description: as §1
Thus, a plant given a plant damage rating of 3 out of 10 is equivalent to 70% plant protection In all of these tests, compounds of Formula I are Compounds 1 (Cpd 1), 2 (Cpd2), and 3 (Cpd3) and compounds of Formula II are compounds 4 (Cpd4) and 5 (Cpd 5).
For evaluating control of the Western Flower Thrips (Frankliniella occidentalis Pergande) through contact and/or systemic means, each test unit consisted of a small open container with a 5- to 7-day-old bean (var. Soleil) plant inside.
Test solutions were formulated and sprayed with 3 replications as described for Test A. After spraying, the test units were allowed to dry for 1 hour, 22 to 27 adult thrips were added to each unit and then a black, screened cap was placed on top. The test units were held for 7 days at 25° C. and 45-55% relative humidity. To evaluate the level of plant protection provided by each treatment, each test unit was then visually assessed for plant damage inflicted by insect feeding and rated 0-10, where 0=undamaged and 10=plant is dead; the results are listed in Tables 3a-g.

[3] = system: Potato Leafhopper (Empoasca fabae Harris); experiment: Test C: Potato Leafhopper control on bean plants, insect mortality after 6 days; details: read-out: % Mortality (obs)
Description: as §1
For evaluating control of Potato Leafhopper (Empoasca fabae Harris) through contact and/or systemic means, each test unit consisted of a small open container with a 5- to 6-day-old Longio bean plant (primary leaves emerged) inside. White sand was added to the top of the soil, and one of the primary leaves was excised prior to application. Test compounds were formulated and sprayed with 3 replications as described for Test A. After spraying, the test units were allowed to dry for 1 hour before they were infested with 5 potato leafhoppers (18- to 21-day-old adults). A black, screened cap was placed on the top of each container. The test units were held for 6 days in a growth chamber at 19-21° C. and 50-70% relative humidity.

[4] = system: cotton melon aphid (Aphis gossypii Glover); experiment: Test D: cotton melon aphid control on okra plants, insect mortality after 6 days; details: Aphis gossypii, read-out: % Mortality (obs)
Description: The analysis of enhanced activity between the mixtures or compositions was determined using Colby's equation. The average % mortality data for the test compounds alone were inserted into the Colby's equation. If the observed (obs) average % mortality was higher than “p”, the expected (exp) % mortality, the mixture or composition had enhanced effects. If the observed average % mortality was equal to or lower than the expected mortality, the mixture or composition either had no enhanced effect. For bioassays where insect feeding damage was evaluated, enhanced activity is identified when the observed plant damage is less than the expected plant damage rating; ratings ranged between 0 (no damage) and 10 (dead plant) and each value was converted to a % plant protection. 100−(Obs Plant Damage*10)
For evaluating control of cotton melon aphid (Aphis gossypii Glover) through contact and/or systemic means, each test unit consisted of a small open container with a 6- to 7-day-old okra plant inside. This was pre-infested by placing on a leaf of the test plant 30 to 40 aphids on a piece of leaf excised from a culture plant (cut-leaf method). The […] moved onto the test plant as the leaf piece desiccated. After pre-infestation, the soil of the test unit was covered with a layer of sand.
Test compounds were formulated and sprayed as described for Test A. The applications were replicated three times. After spraying of the formulated test compounds, each test unit was allowed to dry for 1 hour and then a black, screened cap was placed on top. […]

[5] = system: diamondback moth (Plutella xylostella L.); experiment: Test E: diamondback moth control on mustard plants, contact and/or systemic, plant damage rating after 6 days
Description: as §1
For evaluating control of diamondback moth (Plutella xylostella L.) through contact and/or systemic means, each test unit consisted of a small open container with a 10- to 12-day-old mustard plant inside. Test compounds were formulated and sprayed with 3 replications as described for Test A. After spraying, the test units were allowed to dry for 1 hour before they were infested with 30-50 neonate larvae. A black, screened cap was placed on the top of each container. The test units were held for 6 days in a growth chamber at 24-25° C. and 70% relative humidity. Each test unit was then visually assessed for plant damage and rated 0-10, where 0=undamaged and 10=plant is dead; the results are listed in Tables 6a-b.

SMILES | mortality at 3 ppm [1] [%] | mortality at 5.5 ppm [1] [%] | Plant Damage (obs) ([2]; 0.08 ppm) [%] | Plant Damage (obs) ([2]; 0.28 ppm) [%] | mortality at 1.75 ppm [3] [%] | mortality at 3.3 ppm [3] [%] | mortality at 0.06 ppm [4] [%] | mortality at 0.12 ppm [4] [%] | Plant Protection (obs) ([5]; Table 6a, 0.013 ppm) | Plant Protection (obs) ([5]; Table 6a, 0.02 ppm) | mortality at 50 ppm [1] [%] | mortality at 250 ppm [1] [%] | pest or weed control at 100 ppm ([2]; Frankliniella occidentalis, 168 h, Table 3d, 100 ppm, read-out: Plant Protection (obs)) [%] | pest or weed control at 250 ppm ([2]; Frankliniella occidentalis, 168 h, Table 3d, 250 ppm, read-out: Plant Protection (obs)) [%] | mortality at 50 ppm [3] [%] | mortality at 250 ppm [3] [%] | mortality at 0.25 ppm ([4]; 120 h) [%] | mortality at 0.85 ppm ([4]; 120 h) [%] | Plant Protection (obs) ([5]; Table 6b, 83.2 ppm) | Plant Protection (obs) ([5]; Table 6b, 150 ppm)
CNC(=O)c1cc(C#N)cc(C)c1NC(=O)c1cc(Br)nn1-c1ncccc1Cl [Cyantraniliprole, 3-bromo-1-(3-chloro-2-pyridinyl)-N-[4-cyano-2-methyl-6-[(methylamino)carbonyl]phenyl]-1H-pyrazole-5-carboxamide, reference compound] | 29.1 | 61.1 | 6.7 | 43.3 | 13.3 | 28.6 | 21.1 | 45.1 | 73.3 | 20.0 | – | – | – | – | – | – | – | – | – | –
CCOC(=O)OC1=C(c2cc(C)ccc2C)C(=O)N[C@]12CC[C@@H](OC)CC2 [Spirotetramat, spirotetramat, reference compound] | – | – | – | – | – | – | – | – | – | – | 2.1 | 34.4 | 53.3 | 73.3 | 28.6 | 73.3 | 21.1 | 45.1 | 73.3 | 80.0
